# Assay results taken from paper PMC9916770, “Lycorine Carbamate Derivatives for Reversing P-glycoprotein-Mediated Multidrug Resistance in Human Colon Adenocarcinoma Cells” (International Journal of Molecular Sciences, 2023).
# Experiments:
# Colo320 cells [1] = assay: MTT antiproliferative assay, resistant cells; assay type: cell-based, human; settings: for IC50: Homo sapiens, COLO 320, resistant Colo320, MTT, 72 h, mean ± SD, read-out: IC50 Colo320 (B); for SI (selectivity index) C/B: IC50 MRC-5 / IC50 Colo320
# Method: (§1) The human colon adenocarcinoma cell lines Colo205 doxorubicin-sensitive (CCL-222, ATCC, Manassas, VA, USA) and the resistant Colo320/MDR-LRP expressing P-gp were purchased from LGC Promochem (Teddington, UK). The MRC-5 human embryonal lung fibroblast cell line (CCL-171, ATCC) was purchased from Sigma-Aldrich (Merck KGaA, Darmstadt, Germany). The human colon adenocarcinoma cells (Colo205 and Colo320) were cultured in an RPMI 1640 medium supplemented with 10% fetal bovine serum (FBS), 2 mM L-glutamine, 1 mM Na-pyruvate, and 100 mM HEPES. The semi-adherent human colon cancer cells were detached with a trypsin-Versene (EDTA) solution for 5 min at 37 °C. The MRC-5 human embryonal lung fibroblast cells were cultured in EMEM containing 4.5 g/L of glucose and supplemented with a non-essential amino acid mixture, a selection of vitamins, and 10% FBS. The cell lines were incubated at 37 °C, 5% CO2, and 95% air atmosphere.
# (§2) The antiproliferative effect of the compounds was tested in decreasing serial dilutions of compounds (starting with 100 µM, then two-fold serial dilution) on human cell lines (Colo205, Colo320, and MRC-5) in 96-well flat-bottomed microtiter plates. Firstly, the compounds were diluted in 100 µL of the medium, and then 6 × 10^3 cells (Colo205 and Colo320), in 100 µL of medium, were added to each well, excluding the medium control wells. The MRC-5 adherent cell line was seeded in the EMEM medium for at least 4 h before the assay. The two-fold serial dilutions of the compounds were made in a separate plate (100–0.19 μM) and then transferred to the plates containing the adherent corresponding cell line. Culture plates were incubated at 37 °C for 72 h, and at the end of the incubation period, 20 μL of MTT (thiazolyl blue tetrazolium bromide) solution (from a 5 mg/mL stock solution) was added to each well and incubated for an additional 4 h. Then, 100 μL of sodium dodecyl sulfate (SDS) solution (10% SDS in 0.01 M HCl) was added to each well, and the plates were further incubated at 37 °C overnight in a CO2 incubator. Cell growth was determined by measuring the optical density (OD) at 540/630 nm with a Multiscan EX ELISA reader (Thermo Labsystems, Cheshire, WA, USA). […] IC50 values and the standard deviation (SD) of triplicate experiments were calculated by using GraphPad Prism 5 software for Windows. Doxorubicin (2 mg/mL, Teva Pharmaceuticals, Budapest, Hungary) was used as a positive control and the vehicle DMSO as the negative control. (1) IC50=[ODsample−ODmedium control/ODcell control−ODmedium control]×100
# (§3) The relative resistance (RR) was calculated as the ratio of the IC50 value in the resistant cancer cells and the IC50 in the sensitive cancer cell lines. The selectivity indexes (SI) were calculated as the ratio of the IC50 values in the non-tumor cells and the IC50 in the cancer cell lines. The activity of the compounds toward cancer cells is considered strongly selective if the selectivity index (SI) value is higher than 6, moderately selective if 3 < SI < 6, slightly selective if 1 < SI < 3, and non-selective if SI is lower than 1.
# Colo320 cells [2] = assay: Checkerboard drug combination assay with doxorubicin; assay type: cell-based, human; settings: for Type of interaction: Colo320
# Method: The interaction of lycorine (1) and some selected derivatives (2, 5, 9, 13, 16, 19, 25, and 26) in combination with the chemotherapeutic drug doxorubicin was performed by the checkerboard assay, a widely used technique for assessing drug interactions, in resistant human Colo320 colon adenocarcinoma cells. The type of drug–drug interaction was evaluated by using the Chou and Talalay method for drug combination and expressed using the combination index (CI) values, and therefore evaluated as synergism (CI < 1), additive (CI = 1), or antagonist (CI > 1).
# Drug combination interactions between the compounds and the chemotherapeutic drug doxorubicin were assessed by the checkboard microplate assay on the resistant Colo320, expressing the P-gp transporter. Doxorubicin was serially diluted in the horizontal direction in 100 µL, starting with 8.6 µM, and the compounds were subsequently diluted in the vertical direction in 50 µL. The starting concentration was determined based on the IC50 values. The cells were resuspended in a culture medium and distributed into each well in 50 µL, containing 6 × 10^3 cells, to a final volume of 200 µL per well. The plates were incubated for 72 h at 37 °C in a CO2 incubator, and the cell growth was determined by the MTT staining method, as described previously. Drug interactions were evaluated using CompuSyn software to plot 4 or 5 data points for each ratio (ref software). The results were expressed in terms of combination index (CI) values of 50% growth inhibition, in which a CI value close to 1 indicates additivity, while a CI < 1 is defined as synergy, and a CI > 1 as antagonism.
# Colo205 cells = assay: MTT antiproliferative assay, sensitive cells; assay type: cell-based, human; settings: for IC50: Homo sapiens, COLO 205, sensitive Colo205, MTT, 72 h, mean ± SD; for SI (selectivity index) C/A: IC50 MRC-5 / IC50 Colo205
# Method: as §1, §2, §3
# MRC-5 cells = assay: MTT antiproliferative assay, normal lung fibroblasts; assay type: cell-based; settings: Homo sapiens, normal embryonal lung fibroblasts, 72 h, mean ± SD, read-out: IC50 MCR-5 (C)
# Method: as §1, §2, §3
IC50 (Colo320 cells [1]) [µM],IC50 (Colo205 cells) [µM],"CI at IC50 (combination index) (Colo320 cells [2]; Colo320, 50% growth inhibition)",SMILES,SI (selectivity index) C/B (Colo320 cells [1]),RR (relative resistance ratio) B/A (Colo320 cells [1]; IC50 resistant Colo320 / IC50 sensitive Colo205),Type of interaction (Colo320 cells [2]),SI (selectivity index) C/A (Colo205 cells),IC50 (MRC-5 cells) [µM]
> 100,> 100,–,"O=C(OC1C=C2CCN3Cc4cc5c(cc4C(C1O)C23)OCO5)N1CCOCC1 (centres unmarked) [Compound 3, Lycorine 2-yl morpholine-4-carboxylate]",–,–,–,–,> 100
> 100,> 100,–,"COc1ccc(CCNC(=O)OC2C=C3CCN4Cc5cc6c(cc5C(C2OC(=O)NCCc2ccc(OC)cc2)C34)OCO6)cc1 (centres unmarked) [Compound 4, Lycorine 1,2-diyl bis [(4-methoxyphenethyl)carbamate]]",–,–,–,–,> 100
> 100,> 100,–,"Cc1ccc(CNC(=O)OC2C=C3CCN4Cc5cc6c(cc5C(C2O)C34)OCO6)cc1 (centres unmarked) [Compound 6, Lycorine 2-yl (4-methylbenzyl)carbamate]",–,–,–,–,> 100
> 100,> 100,–,"O=C(NCc1ccc2c(c1)OCO2)OC1C=C2CCN3Cc4cc5c(cc4C(C1OC(=O)NCc1ccc4c(c1)OCO4)C23)OCO5 (centres unmarked) [Compound 7, Lycorine 1,2-diyl bis[(piperonyl)carbamate]]",–,–,–,–,> 100
> 100,> 100,–,"O=C(NCc1ccc2c(c1)OCO2)OC1C=C2CCN3Cc4cc5c(cc4C(C1O)C23)OCO5 (centres unmarked) [Compound 8, Lycorine 2-yl (piperonyl)carbamate]",–,–,–,–,> 100
> 100,> 100,–,"O=C(NCCc1ccccc1)O[C@H]1C=C2CCN3Cc4cc5c(cc4[C@H]([C@@H]1O)[C@@H]23)OCO5 [Compound 10, lycorine 2-yl phenethylcarbamate]",–,–,–,–,> 100
> 100,> 100,–,"COc1ccc(CNC(=O)OC2C=C3CCN4Cc5cc6c(cc5C(C2O)C34)OCO6)cc1 (centres unmarked) [Compound 11, Lycorine 2-yl (4-methoxylbenzyl)carbamate]",–,–,–,–,> 100
> 100,> 100,–,"CN(Cc1ccccc1)C(=O)OC1C=C2CCN3Cc4cc5c(cc4C(C1O)C23)OCO5 (centres unmarked) [Compound 12, Lycorine 2-yl benzyl(methyl)carbamate]",–,–,–,–,> 100
78 ± 3.82,96.26 ± 0.33,0.69,"O=C(OC1C=C2CCN3Cc4cc5c(cc4C(C1O)C23)OCO5)N1CCc2ccccc2C1 (centres unmarked) [Compound 13, Lycorine 2-yl 3,4-dihydroisoquinoline-2(1H)-carboxylate]",–,–,Synergism,–,> 100
> 100,> 100,–,"O=C(OC1C=C2CCN3Cc4cc5c(cc4C(C1OC(=O)N1CCCC1)C23)OCO5)N1CCCC1 (centres unmarked) [Compound 14, Lycorine 1,2-diyl bis(pyrrolidine-1-carboxylate)]",–,–,–,–,> 100
> 100,> 100,–,"O=C(OC1C=C2CCN3Cc4cc5c(cc4C(C1O)C23)OCO5)N1CCCC1 (centres unmarked) [Compound 15, Lycorine 2-yl pyrrolidine-1-carboxylate]",–,–,–,–,> 100
> 100,> 100,–,"O=C(OC1C=C2CCN3Cc4cc5c(cc4C(C1O)C23)OCO5)N1CCCCC1 (centres unmarked) [Compound 17, Lycorine 2-yl piperidine-1-carboxylate]",–,–,–,–,> 100
> 100,> 100,–,"CC(C)(C)c1ccc(CNC(=O)OC2C=C3CCN4Cc5cc6c(cc5C(C2OC(=O)NCc2ccc(C(C)(C)C)cc2)C34)OCO6)cc1 (centres unmarked) [Compound 18, Lycorine 1,2-diyl bis[(4-(tert-butyl)benzyl)carbamate]]",–,–,–,–,> 100
> 100,> 100,–,"O=C(NCc1ccccc1F)OC1C=C2CCN3Cc4cc5c(cc4C(C1OC(=O)NCc1ccccc1F)C23)OCO5 (centres unmarked) [Compound 20, Lycorine 1,2-diyl bis[(2-fluorobenzyl)carbamate]]",–,–,–,–,> 100
> 100,> 100,–,"O=C(NCc1ccccc1F)OC1C=C2CCN3Cc4cc5c(cc4C(C1O)C23)OCO5 (centres unmarked) [Compound 21, Lycorine 2-yl (2-fluorobenzyl)carbamate]",–,–,–,–,> 100
> 100,> 100,–,"O=C(NCc1cccc(C(F)(F)F)c1)O[C@H]1[C@H]2c3cc4c(cc3CN3CCC(=C[C@@H]1OC(=O)NCc1cccc(C(F)(F)F)c1)[C@H]23)OCO4 [Compound 22, Lycorine 1,2-diyl bis[(3-(trifluoromethyl)benzyl)carbamate]]",–,–,–,–,> 100
> 100,> 100,–,"O=C(NCCc1ccc(F)cc1)OC1C=C2CCN3Cc4cc5c(cc4C(C1OC(=O)NCCc1ccc(F)cc1)C23)OCO5 (centres unmarked) [Compound 23, Lycorine 1,2-diyl bis[(4-fluorophenethyl) carbamate]]",<0.037,–,–,<0.037,3.79 ± 0.21
> 100,> 100,–,"O=C(NCCc1ccc(F)cc1)OC1C=C2CCN3Cc4cc5c(cc4C(C1O)C23)OCO5 (centres unmarked) [Compound 24, Lycorine 2-yl (4-fluorophenethyl)carbamate]",–,–,–,–,> 100
> 100,> 100,–,"O=C(NCc1ccc(F)cc1)OC1C=C2CCN3Cc4cc5c(cc4C(C1OC(=O)NCc1ccc(F)cc1)C23)OCO5 (centres unmarked) [Compound 27, Lycorine 1,2-diyl bis[(4-fluorobenzyl)carbamate]]",–,–,–,–,> 100
> 100,> 100,–,"O=C(NCc1ccc(F)cc1)OC1C=C2CCN3Cc4cc5c(cc4C(C1O)C23)OCO5 (centres unmarked) [Compound 28, Lycorine 2-yl (4-fluorobenzyl)carbamate]",–,–,–,–,> 100
> 100,> 100,–,"CCCNC(=O)OC1C=C2CCN3Cc4cc5c(cc4C(C1OC(=O)NCCC)C23)OCO5 (centres unmarked) [Compound 29, Lycorine 1,2-diyl bis(propylcarbamate)]",–,–,–,–,> 100
> 100,> 100,–,"CCCNC(=O)OC1C=C2CCN3Cc4cc5c(cc4C(C1O)C23)OCO5 (centres unmarked) [Compound 30, Lycorine 2-yl propylcarbamate]",–,–,–,–,> 100
> 100,> 100,–,"O=C(NCc1ccccc1)OC1C=C2CCN3Cc4cc5c(cc4C(C1OC(=O)NCc1ccccc1)C23)OCO5 (centres unmarked) [Compound 32, Lycorine 1,2-diyl bis(benzylcarbamate)]",–,–,–,–,71.9 ± 5.38

SMILES,IC50 (Colo320 cells [1]) [µM],IC50 (Colo205 cells) [µM],"CI at IC50 (combination index) (Colo320 cells [2]; Colo320, 50% growth inhibition)",SI (selectivity index) C/B (Colo320 cells [1]),RR (relative resistance ratio) B/A (Colo320 cells [1]; IC50 resistant Colo320 / IC50 sensitive Colo205),Type of interaction (Colo320 cells [2]),SI (selectivity index) C/A (Colo205 cells),IC50 (MRC-5 cells) [µM]
"O[C@H]1[C@H]2c3cc4c(cc3CN3CCC(=C[C@@H]1O)[C@H]23)OCO4 [Compound 1, lycorine]",0.93 ± 0.01,1.06 ± 0.02,–,3.26,0.87,Moderate antagonism,2.86,3.04 ± 0.11
